# Calls of active or inactive are those of the source. The calls are words filed in the database; no cut-off is given here.
# How the values were obtained:
# [1] = biological target: T1, Estrogen receptor (Homo sapiens) (UniProt P03372); experiment: Binding affinity to human ERalpha assessed as relative binding affinity incubated under vibration for 1 min followed by 2 hrs incubation under dark condition by fluorescence polarization assay relative to estradiol; details: time 121.0 min
# T1 sequence (whole entry): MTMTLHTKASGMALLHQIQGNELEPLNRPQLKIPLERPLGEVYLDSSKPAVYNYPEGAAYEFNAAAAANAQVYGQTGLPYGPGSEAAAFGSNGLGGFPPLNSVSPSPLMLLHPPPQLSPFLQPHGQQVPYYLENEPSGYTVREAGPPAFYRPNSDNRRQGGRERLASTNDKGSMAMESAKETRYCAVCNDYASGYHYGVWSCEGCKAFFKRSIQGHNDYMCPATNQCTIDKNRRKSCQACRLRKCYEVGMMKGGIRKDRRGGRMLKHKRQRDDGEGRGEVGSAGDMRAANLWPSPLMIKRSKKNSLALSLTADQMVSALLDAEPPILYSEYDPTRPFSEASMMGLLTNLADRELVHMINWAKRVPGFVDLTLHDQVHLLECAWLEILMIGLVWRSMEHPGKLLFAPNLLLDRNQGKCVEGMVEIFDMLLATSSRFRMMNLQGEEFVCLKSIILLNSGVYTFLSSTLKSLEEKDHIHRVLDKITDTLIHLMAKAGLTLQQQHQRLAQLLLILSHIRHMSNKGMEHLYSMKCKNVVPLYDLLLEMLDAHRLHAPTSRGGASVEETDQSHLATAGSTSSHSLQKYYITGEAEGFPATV
# [2] = species on record: Homo sapiens; experiment: Selectivity ratio of relative binding affinity for human ERalpha to relative binding affinity to human ERbeta
# [3] = Selectivity index, ratio of IC50 for cytotoxicity against human MCF-10A cells to IC50 for antiproliferative activity against human MCF7 cells; format: toxicity, cell-based; details: MCF-10A cells and MCF7 cells, read-out: Ratio IC50
# [4] = tested on: MCF7; experiment: Antiproliferative activity against ERalpha positive human MCF7 cells assessed as inhibition of cell proliferation incubated for 72 hrs by CCK8 assay; format: functional, cell-based; details: MCF7, 72 h
# [5] = Antiproliferative activity against human Tamoxifen-resistant LCC2 cells assessed as inhibition of cell proliferation incubated for 72 hrs by CCK8 assay; format: functional, cell-based
# [6] = tested on: T47D; experiment: Antiproliferative activity against ERalpha positive human T47D cells assessed as inhibition of cell proliferation incubated for 72 hrs by CCK8 assay; format: functional, cell-based
# [7] = Cytotoxicity against human MCF-10A cells assessed as inhibition of cell proliferation incubated for 72 hrs by CCK8 assay; format: toxicity, cell-based
# [8] = biological target: T2, Tubulin (Homo sapiens) (UniProt P68371+Q9H4B7+P0DPH7+P68366+Q13509+Q71U36+P04350+Q3ZCM7+P07437+P68363+Q9BQE3+Q6PEY2+Q13885+Q9BVA1+Q9BUF5); experiment: Inhibition of tubulin polymerization (unknown origin) at 30 uM incubated for 60 mins by microplate reader analysis; format: protein-complex assay
# [9] = tested on: T47D; experiment: Antiproliferative activity against human T47D cells harboring ERalpha D538G mutant assessed as inhibition of cell proliferation incubated for 72 hrs by CCK8 assay; format: functional, cell-based
# [10] = biological target: Estrogen receptor beta (Homo sapiens) (UniProt Q92731); experiment: Binding affinity to human ERbeta assessed as relative binding affinity incubated under vibration for 1 min followed by 2 hrs incubation under dark condition by fluorescence polarization assay relative to estradiol; details: time 121.0 min
# [11] = tested on: T47D; experiment: Antiproliferative activity against human T47D cells harboring ERalpha Y537S mutant assessed as inhibition of cell proliferation incubated for 72 hrs by CCK8 assay; format: functional, cell-based
# [12] = biological target: T2, Tubulin (Homo sapiens); experiment: Disruption of microtubule network in human MCF7 cells assessed as chaotic microtubule network at 2 uM incubated for 48 hrs by DAPI staining based confocal laser scanning microscopic analysis; format: cell-based
# [13] = tested on: LCC2; experiment: Induction of cell cycle arrest in human LCC2 cells assessed as accumulation of cells at G2/M phase incubated for 48 hrs by flow cytometry analysis; format: functional, cell-based; details: dose 6-24 µM
# [14] = biological target: T3, Estrogen receptor (Homo sapiens, UniProt P03372); experiment: Antagonist activity at ERalpha (unknown origin) expressed in HEK293T cells co-expressing ERbeta and ERE-luciferase reporter assessed as reduction in relative light unit incubated for 24 hrs by dual-luciferase reporter assay; format: cell-based
# T3 sequence (P03372 whole entry): T1 sequence (whole entry)
# [15] = biological target: T2, Tubulin (Homo sapiens); experiment: Disruption of microtubule network in human MCF7 cells assessed as ruptured microtubule network at 2 uM incubated for 48 hrs by DAPI staining based confocal laser scanning microscopic analysis; format: cell-based
# [16] = tested on: MDA-MB-231; experiment: Antiproliferative activity against ERalpha negative human MDA-MB-231 cells assessed as inhibition of cell proliferation incubated for 72 hrs by CCK8 assay; format: functional, cell-based; details: MDA-MB-231, 72 h
# [17] = tested on: MCF7; experiment: Induction of cell cycle arrest in human MCF7 cells assessed as increase in G2/M phase cells at 0 to 8 uM incubated for 48 hrs by flow cytometry analysis (reference value: 17.45%); format: functional; details: dose 0-8 µM
# [18] = biological target: T2, Tubulin (Homo sapiens); experiment: Disruption of microtubule network in human LCC2 cells assessed as ruptured microtubule network at 4 uM incubated for 48 hrs by DAPI staining based confocal laser scanning microscopic analysis; format: cell-based
# [19] = biological target: T2, Tubulin (Homo sapiens); experiment: Disruption of microtubule network in human LCC2 cells assessed as chaotic microtubule network at 4 uM incubated for 48 hrs by DAPI staining based confocal laser scanning microscopic analysis; format: cell-based
# [20] = tested on: MCF7; experiment: Antitumor activity against human MCF7 cells xenografted in Balb/c nude mouse assessed as tumor growth inhibition at 2 mg/kg, ip administered every other day for 20 days relative to control; format: functional; details: MCF7, 480 h, time 20 day, read-out: TGI
# [21] = Antitumor activity against human Tamoxifen-resistant LCC2 cells xenografted in Balb/c nude mouse assessed as tumor growth inhibition at 2 mg/kg, ip administered every other day for 20 days relative to control; format: functional; details: Tamoxifen-resistant LCC2 cell, 480 h, time 20 day, read-out: TGI
# [22] = biological target: T1, Estrogen receptor (Homo sapiens); experiment: Induction of ERalpha degradation in human MCF7 cells at 5 uM incubated for 24 hrs by Western blot analysis; format: cell-based
# Estrogen receptor beta (Homo sapiens), sequence (Q92731 whole entry): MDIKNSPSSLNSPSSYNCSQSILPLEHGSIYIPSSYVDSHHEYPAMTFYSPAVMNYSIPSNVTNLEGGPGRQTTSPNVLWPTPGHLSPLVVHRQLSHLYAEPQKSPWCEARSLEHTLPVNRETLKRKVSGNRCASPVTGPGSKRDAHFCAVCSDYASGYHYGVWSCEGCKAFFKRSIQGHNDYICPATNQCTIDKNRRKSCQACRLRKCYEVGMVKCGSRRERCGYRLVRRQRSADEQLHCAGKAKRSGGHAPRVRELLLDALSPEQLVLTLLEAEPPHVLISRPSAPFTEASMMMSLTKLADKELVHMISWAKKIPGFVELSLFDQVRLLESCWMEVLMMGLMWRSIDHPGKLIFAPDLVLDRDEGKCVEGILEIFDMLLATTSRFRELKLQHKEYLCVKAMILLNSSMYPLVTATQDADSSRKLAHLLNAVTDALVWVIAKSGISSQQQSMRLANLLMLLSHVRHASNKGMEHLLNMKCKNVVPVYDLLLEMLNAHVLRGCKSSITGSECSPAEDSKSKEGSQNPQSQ
RBA [1] [%],Selectivity ratio [2],IC50 [4] [µM],IC50 [6] [µM],tubulin polymerization inhibition (active/not active) [8],IC50 [9] [µM],RBA [10] [%],IC50 [11] [µM],Structure (SMILES),selectivity ratio [3],IC50 [5] [µM],IC50 at 72 h [7] [µM],IC50 [16] [µM],also measured
0.76,12.7,0.23,6.92,inactive,7.25,0.06,12.7,COc1ccc(N(CC(F)(F)F)S(=O)(=O)C2CC3OC2C(c2ccc(O)cc2)=C3c2ccc(O)cc2)cc1 (stereo unspecified),88.6,5.16,20.4,,
,,,> 31,inactive,> 31,,,O=S(=O)(Oc1ccccc1)C1CC2OC1C(c1ccc(O)cc1)=C2c1ccc(O)cc1 (stereo unspecified),> 4.11,25,> 60,,Activity [22]: inactive

# Second part, the molecule before the results:
Structure (SMILES),RBA [1] [%],Selectivity ratio [2],IC50 [4] [µM],IC50 [6] [µM],tubulin polymerization inhibition (active/not active) [8],IC50 [9] [µM],RBA [10] [%],IC50 [11] [µM],selectivity ratio [3],IC50 [5] [µM],IC50 at 72 h [7] [µM],IC50 [16] [µM],also measured
N#C[Se]CCCCCC(=O)Nc1ccc(C2=C(c3ccc(O)cc3)C3CC(S(=O)(=O)Oc4ccccc4F)C2O3)cc1 (stereo unspecified),17.4,44.5,0.28,0.85,Active,1.47,0.39,1.56,63,6.13,17.6,3.4,Activity [12]: Active; Activity [13]: Dose-Dependent Effect; IC50 [14]: 1.01 µM; Activity [15]: Active; Activity [17]: 27.55%; Activity [18]: Active; Activity [19]: Active
C[C@]12CC[C@@H]3c4ccc(O)cc4C[C@@H](CCCCCCCCC[S+]([O-])CCCC(F)(F)C(F)(F)F)[C@H]3[C@@H]1CC[C@@H]2O (stereo partly specified) [FULVESTRANT],,,0.12,,,,,,,,> 100,> 100,inhibition in vivo at 2 mg/kg [20]: 64.1%; inhibition in vivo at 2 mg/kg [21]: 45.8%
CC/C(=C(\c1ccc(O)cc1)c1ccc(OCCN(C)C)cc1)c1ccccc1 [AFIMOXIFENE],,,,,,9.13,,8.9,,20.9,,17.2,

# — ChEMBL document CHEMBL5360672, “Identification of Novel Dual-Target Estrogen Receptor α Degraders with Tubulin Inhibitory Activity for the Treatment of Endocrine-Resistant Breast Cancer” (J Med Chem, 2023)
